Measured values from patent publication US20100158842A1, “NATURAL SKIN WHITENER: 4-HYDROXY-OXINDOLE-3-ACETIC ACID” (SPECTRUM DYNAMICS LLC, priority 2008, published 2010).

Key:
[1] = Solubility; format: physicochemical; details: water, methanol/ethanol
Text: There is also disclosed here a method of making a cosmetic ingredient with the chemical composition and structure of 4-hydroxy-oxindole-3-acetic acid. The chemical compound was identified in extracts of corn tassels. In particular, seasonally aromatic corn tassels were harvested as previously described in U.S. Pat. No. 7,399,493 with particular attention to harvesting the tassel at the peak time of aroma production. They were collected simply by shaking the tassels directly into collecting sacks conveyed to the laboratory where they are immersed directly into ice-cold absolute alcohol and extracted for 24-48 hours at 0-4° C. Crude alcohol extracts have a light green color and a fragrance reminiscent of bee's wax. The extract is further clarified low speed centrifugation followed by filtration through a 0.4 micron nitrocellulose filter and the resulting sterile solution stored at −20° C. until further needed or then concentrated by vacuum rotary evaporation to obtain a slightly viscous mass. This material served as the starting point for chemical analysis. Dilutions of the ice-cold crude extract was submitted to preliminary assessment of its anti-oxidant activity. High pressure liquid chromatography (HPLC) was employed to determine the principle phenolic components of the tassel extract. […]

[2] = DPPH* free-radical scavenging assay; details: 100 microgram per milliliter in ethanol; FIG. 4
Procedure: Purified Tasselin A has been assayed and determined its free-radical scavenging activity. FIG. 4 present typical results of standardized 1,1-diphenyl-2-picrylhydrazyl radical (DPPH*) reagent test as previously described (Bonina et al, 2002). This test was previously disclosed and employed on crude corn tassel alcoholic extracts (Wille J J: U.S. Pat. No. 7,399,439). Here we confirm that purified Tasselin A has potent antioxidant activity. A 1.0 mg/ml stock solution of purified Tasselin A in ethanol was diluted with anhydrous ethanol to a final concentration of 100 microgram per milliliter and assayed in the DPPH* free-radical scavenging assay.

[3] = test system: mushroom tyrosinase enzyme; experiment: Anti-tyrosinase activity assay; format: biochemical; details: 150 microgram/ml, 30 minute test end-point; FIG. 7
Procedure: For this purpose, a modified assay method of anti-tyrosinase activity described in the literature was employed (Chang T S and Tseng M J., Mar. Sci. Technol., 14: 190-193, 2006). The assay employs mushroom tyrosinase enzyme to enzymatically convert a colorless solution tyrosine to a black melanin product. The anti-tyrosinase activity is measured by the reduction of black color development in the presence of the inhibitor, which in this instance is Tasselin A. FIG. 7 is a graph showing the inhibiting effect of two different concentrations of purified Tasselin A on tyrosinase activity as 50% reduction at a concentration of 150 microgram/ml over the 30 minute test end-point.

[4] = Storage stability of lyophilized powder; format: physicochemical; details: milligram quantities, under vacuum
Text: Given these physical properties, Tasselin A has been formulated in both lotion and cream as described in the Tables III, IV, and V below.

[5] = test system: human forearm skin; experiment: Inhibition of skin irritation induced by 24-hour occlusion with benzalkonium chloride; format: in vivo; details: 0.01% (100 micrograms/milliliter) co-administered with 0.4% benzalkonium chloride, volar forearm, FIG. 5
Text: The anti-irritant activity of purified Tasselin A has been assessed by determining its ability to inhibit skin irritation induced by 24-hour occlusion of human forearm skin with a solution of 0.4% benzalkonium chloride (BC) with or without inclusion of 0.01% (100 micrograms/milliliter) of purified Tasselin A. FIG. 5 is a photograph of the volar surface of a subject forearm immediately after removal of the occlusive dressing. There are two circled skin areas: A) control site, and B) test site.

O=C(O)CC1C(=O)Nc2cccc(O)c21 (centres unmarked) [Tasselin A, 2,3-dihydro-4-hydroxy-2-oxo-1H-indole-3-acetic acid]
solubility [1]: both water and methanol/ethanol soluble | reduction in absorbance measured at 595 nm [2]: 40% | reduction of tyrosinase activity [3]: 50% | storage as dry powder [4]: successfully lyophilized and stored as a dry powder under vacuum for up to a year | visual scoring of skin irritation (swelling, erythema) at test site [5]: no swelling or redness
